The values that follow are results of earlier work, collected in patent US11672759B2 (priority 2017, dated 2023).

SMILES strings stand for the structures.

For the series the following is noted: estimated.

Turning to `COc1cc2c(c(OC)c1OC)-c1ccc(OC)c(=O)cc1[C@@H](NC(C)=O)CC2` [colchicine, N-((7S)-5,6,7,9-tetrahydro-1,2,3,10-tetramethoxy-9-oxobenzo(a)heptalen-7-yl)-acetamide], the effective dose result was “approximately 0.015 mg/kg”, the toxic dose result is given as “greater than 0.1 mg/kg” and the typically lethal dose is on record as “approximately 0.8 mg/kg”.
